According to article PMC5618506, “CCR7 Sulfotyrosine Enhances CCL21 Binding” (International Journal of Molecular Sciences, 2017):
Blank lines part the entries; values can stand above or below the molecule they belong to. Non-standard residues stand in square brackets, D forms with d. Residues, ends and D or L forms follow the SMILES beside them. No end group written: not given here. sY = N[C@@H](Cc1ccc(OS(=O)(=O)O)cc1)C(=O)O; pY = N[C@@H](Cc1ccc(OP(=O)(O)O)cc1)C(=O)O

How the values were obtained:
CCL21 = target: T1, CCL21 (Homo sapiens, UniProt O00585); experiment: 15N-1H HSQC NMR titration of U-15N CCL21 with CCR7 N-terminal peptides; Kd by nonlinear fitting of chemical shift perturbations; type: binding; settings: for Kd: 100 μM U-15N CCL21 titrated with peptide, NMR buffer 25 mM deuterated MES, 10% D2O, 0.2% NaN3, pH 6.0, 25 °C, fit of all CCL21 residues with significant chemical shift perturbations (11–30 sY17: only residues that did not broaden beyond detection), ± CI at 95% confidence level; for Kd, CCL21 K69 only (representative residue): nonlinear fitting of combined amide chemical shift perturbations of CCL21 residue K69 versus peptide concentration, 100 μM U-15N CCL21, pH 6.0, 25 °C
T1 construct: Our previous NMR studies defined the 3D structure of full-length CCL21; made in house
T1 sequence (O00585 24-134): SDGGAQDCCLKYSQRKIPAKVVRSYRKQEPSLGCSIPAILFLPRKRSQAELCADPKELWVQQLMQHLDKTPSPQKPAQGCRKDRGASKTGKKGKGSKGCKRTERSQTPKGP
Procedure: NMR spectroscopic data were collected at the NMR facility at the Medical College of Wisconsin on a Bruker Avance 600 MHz spectrometer equipped with ^1H/^13C/^15N Cryoprobe® at 25 °C. Chemical shift assignments for CCR7 1–30 C24A (H, N, C, C^α, and most side chain carbons) were determined by standard techniques using 1.05 mM U-^15N/^13C labeled CCR7 1–30 C24A in NMR buffer (25 mM deuterated MES, 10% D2O, 0.2% NaN3, pH 6.0). To determine CCR7 N-terminal residues likely involved in CCL21 binding, 200 μM U-^15N/^13C CCR7 1–30 C24A in NMR buffer was monitored using ^15N-^1H HSQC spectra while titrating with increasing CCL21 concentrations (molar ratios of 1:0, 1:0.25, 1:0.5, 1:0.75, 1:1, 1:1.5, 1:2 and 1:2.5 of CCR7:CCL21).
To identify the impact of CCR7 tyrosine modification on CCL21 binding, 100 μM of U-^15N CCL21 in NMR buffer was titrated with increasing concentrations of the indicated CCR7 peptides and monitored using ^15N-^1H HSQC spectra, as previously described. […] Combined amide chemical shift perturbations (Δδ) were computed as [(5ΔδH)^2+(ΔδN)^2]^1/2, where ΔδH and ΔδN are the changes in backbone amide ^1H and ^15N chemical shifts in ppm, respectively. Dose-dependent changes in chemical shift perturbations upon titration with the various CCR7 peptides were used to determine dissociation constant (Kd) values through nonlinear fitting to an equation that takes into account ligand depletion, as previously described.

CCR7 5–11 pY8 = target: T2, CCR7 5–11 pY8 (Homo sapiens, N-terminus assumed; SMILES CC[C@H](C)[C@H](NC(=O)[C@H](Cc1ccc(OP(=O)(O)O)cc1)NC(=O)[C@H](CC(=O)O)NC(=O)[C@H](CC(=O)O)NC(=O)[C@@H](N)[C@@H](C)O)C(=O)NCC(=O)N[C@@H](CC(=O)O)C(N)=O); experiment: NMR
T2 chain: TDD[pY]IGD-NH2

CCR7 5–11 = target: T3, CCR7 5–11 (Homo sapiens); experiment: NMR
T3 chain: TDDYIGD-NH2

CCR7 5–11 sY8 = target: T4, CCR7 5–11 sY8 (Homo sapiens, N-terminus assumed; SMILES CC[C@H](C)[C@H](NC(=O)[C@H](Cc1ccc(OS(=O)(=O)O)cc1)NC(=O)[C@H](CC(=O)O)NC(=O)[C@H](CC(=O)O)NC(=O)[C@@H](N)[C@@H](C)O)C(=O)NCC(=O)N[C@@H](CC(=O)O)C(N)=O); experiment: NMR
T4 chain: TDD[sY]IGD-NH2

- Kd (CCL21): 240 ± 60 µM
Molecule: CC[C@H](C)[C@H](NC(=O)[C@H](Cc1ccc(OP(=O)(O)O)cc1)NC(=O)[C@H](CC(=O)O)NC(=O)[C@H](CC(=O)O)NC(=O)[C@@H](N)[C@@H](C)O)C(=O)NCC(=O)N[C@@H](CC(=O)O)C(N)=O [CCR7 5–11 pY8] (H-TDD[pY]IGD-NH2)

- Kd (CCL21): 140 ± 40 µM
- Kd, CCL21 K69 only (representative residue) (CCL21): 180 ± 40 µM
Molecule: CC[C@H](C)[C@H](NC(=O)[C@H](Cc1ccc(OS(=O)(=O)O)cc1)NC(=O)[C@H](CC(=O)O)NC(=O)[C@H](CC(=O)O)NC(=O)[C@@H](N)[C@@H](C)O)C(=O)NCC(=O)N[C@@H](CC(=O)O)C(N)=O [CCR7 5–11 sY8] (H-TDD[sY]IGD-NH2)

- Kd (CCL21): 1700 µM
Molecule: CC(C)C[C@H](NC(=O)[C@H](CO)NC(=O)[C@H](CCC(=O)O)NC(=O)[C@H](Cc1ccccc1)NC(=O)[C@H](CC(C)C)NC(=O)[C@@H](NC(=O)[C@H](Cc1ccc(OP(=O)(O)O)cc1)NC(=O)[C@H](CC(=O)O)NC(=O)[C@@H](NC(=O)[C@@H](NC(=O)[C@@H](NC(=O)[C@H](CC(N)=O)NC(=O)[C@@H](N)CC(=O)O)[C@@H](C)O)[C@@H](C)O)C(C)C)[C@@H](C)O)C(=O)N[C@@H](C)C(=O)N[C@@H](CO)C(=O)N[C@@H](CCCCN)C(=O)N[C@@H](CCCCN)C(=O)N[C@@H](CC(=O)O)C(=O)N[C@H](C(=O)N[C@@H](CCCNC(=N)N)C(N)=O)C(C)C [CCR7 11–30 pY17] (H-DNTTVD[pY]TLFESLASKKDVR-NH2)

- Kd (CCL21): 480 ± 70 µM
Molecule: CC(C)C[C@H](NC(=O)[C@H](CO)NC(=O)[C@H](CCC(=O)O)NC(=O)[C@H](Cc1ccccc1)NC(=O)[C@H](CC(C)C)NC(=O)[C@@H](NC(=O)[C@H](Cc1ccc(OS(=O)(=O)O)cc1)NC(=O)[C@H](CC(=O)O)NC(=O)[C@@H](NC(=O)[C@@H](NC(=O)[C@@H](NC(=O)[C@H](CC(N)=O)NC(=O)[C@@H](N)CC(=O)O)[C@@H](C)O)[C@@H](C)O)C(C)C)[C@@H](C)O)C(=O)N[C@@H](C)C(=O)N[C@@H](CO)C(=O)N[C@@H](CCCCN)C(=O)N[C@@H](CCCCN)C(=O)N[C@@H](CC(=O)O)C(=O)N[C@H](C(=O)N[C@@H](CCCNC(=N)N)C(N)=O)C(C)C [CCR7 11–30 sY17] (H-DNTTVD[sY]TLFESLASKKDVR-NH2)

- Kd (CCL21): 6800 µM
Molecule: DNTTVDYTLFESLASKKDVR-NH2 [CCR7 11–30]

- Kd (CCL21): 700 ± 300 µM
- Kd, CCL21 K69 only (representative residue) (CCL21): 530 ± 40 µM
Molecule: TDDYIGD-NH2 [CCR7 5–11]

- Kd (CCR7 5–11): 700 µM
B1: CCL21 (protein)
chain: T1 sequence (O00585 24-134)
- Kd (CCR7 5–11 pY8): 240 µM
- Kd (CCR7 5–11 sY8): 140 µM
